# Laboratory results published in patent US10875863B2, “RIPK2 inhibitors and method of treating cancer with same” (University Health Network, priority 2014, dated 2020).
# Key:
# TNFα = TNFα in dendritic cell culture supernatants by ELISA; assay type: cell-based, mouse; settings: supernatants from LPS ± MDP stimulation
# Method: (§1) IL-12-yellow fluorescent protein (YFP) reporter mouse bone marrow dendritic cells were stimulated for 24 hours with 0.3 ng/ml LPS±1 μg/ml MDP (i.e., NOD2 agonist) in the presence of Example A3 (FIG. 2A). IL-12-yellow fluorescent protein (YFP) reporter mouse bone marrow dendritic cells were stimulated for 24 hours with 0.3 μg/ml Pam3Cys±1 μg/ml MDP (i.e., NOD2 agonist) in the presence of Example A3 (FIG. 2B). […] Data are represented as the mean±SEM of triplicate measurements. Levels of IL-12 p70 (FIG. 2C, left panel) and TNFα (FIG. 2C, right panel) in the cell culture supernatants from A were measured by ELISA techniques with commercially available kits. […] Data are represented as the mean±SEM of triplicate measurements.
# HCT116 xenografts = assay: In vivo response of HCT116 xenografts, tolerability and body weight; set-up: species or system CB-17 SCID mice; settings: SCID mice with HCT116 xenografts
# Method: HCT116 colon cancer cells were purchased from ATCC (American Type Culture Collections) and cultured in DMEM (Dulbecco's Modified eagle medium—purchased from GIBCO) supplemented with 10% fetal calf serum. Five million cells were injected subcutaneously in the right flank of 6-8 week old male CB-17 SCID mice. When the mean tumor volume reached 80-120 mm^3, mice were randomized into 5 groups (n=5) and received either vehicle (10% NMP, 40% PEG, 50% H2O) or compound at the doses indicated.
# Tumor volume and body weight were measured three times weekly. Tumor volume was calculated by the following formula: x^2y/2. Percent tumor growth inhibition after initiation of treatment with compound was calculated by: TGI=100×1−(tumor volumefinal−tumor volumeinitial for compound treated group)/(tumor volumefinal−tumor volumeinitial for […] control group).
# [1] = test system: IL-12-yellow fluorescent protein (YFP) reporter mouse bone marrow dendritic cells; assay: IL-12-YFP reporter dendritic cells, flow cytometric analysis; assay type: cell-based; settings: 24 hours, LPS or Pam3Cys ± 1 μg/ml MDP
# Method: as §1
# IL-12 p70 = IL-12 p70 in dendritic cell culture supernatants by ELISA; assay type: cell-based, mouse; settings: supernatants from LPS ± MDP stimulation
# Method: as §1
smiles,measurement,setting,value
"Cc1ccccc1-c1cc2nc(Nc3cccc(N4CCOCC4)c3)ncc2[nH]1 [Example A3, N-(3-morpholinophenyl)-6-(o-tolyl)-5H-pyrrolo[3,2-d]pyrimidin-2-amine]",levels of TNFα in cell culture supernatants,TNFα,dose-dependent reduction
same,mean body weight loss,HCT116 xenografts; 92 mg/kg Q.D. p.o.,7.8%
same,tolerability,"HCT116 xenografts; Q.D. p.o., 18 days",well tolerated
same,mean body weight loss in the treated arms compared to control,HCT116 xenografts; treated arms versus control,less than 6%
same,cell viability as assessed by 7AAD exclusion,[1],no measurable effect
same,percentage of YFP positive cells (IL-12 positive cells),[1],minimal effect
same,mean fluorescence intensity YFP (amount of IL-12),[1]; effect MDP-dependent,dose-dependent reduction
same,levels of IL-12 p70 in cell culture supernatants,IL-12 p70,dose-dependent reduction
